# Results: patent publication US11712432B2, “Method of treating cancer with an elevated glycogen content” (University of Kentucky Research Foundation, priority 2018, dated 2023)
# pIC50: −log10 of the molar value. “Also recorded” adds a separate entry of the source. Read-outs that look alike come from different tables or passages of the source.
# Legend:
# HEK293 cells = assay: GP localization by immunofluorescence after leptomycin; type: cell-based; details: leptomycin B for 3 hours
# Description: FIGS. 11A-E show images illustrating that malin ubiquitination of GPBB drives nuclear localization. (A) Immunoblotting analysis of HSP70, laforin, glycogen debranching enzyme (GDE), branching enzyme (BE), and glycogen phosphorylase (GP) with anti-tubulin (Tub) as the loading control in empty vector (EV) or malin-overexpressing (malin-OE) HEK293 cells. (B) Localization of exogenously expressed malin and GP in HEK293 cells assessed by immunofluorescence. (C) In vitro ubiquitination assay using recombinant E1, E2 (UbcH5a), malin, and myc-GP followed by immunoprecipitation with anti-myc, SDS-PAGE, and immunoblotting analysis with an antibody detecting ubiquitin. (D) Effect of inhibition of nuclear […] with leptomycin on GP localization. HEK293 cells were transfected with GFP-MEK or empty vector for the analysis of endogenous GP. Twenty-four hours post-transfection, cells were exposed to leptomycin B for 3 hours, and protein localization was assessed by immunofluorescence. (E) Schematic model for GP nuclear translocation after malin-mediated ubiquitination. All data are representative of three experiments.
# Since GPBB is a novel malin-interacting protein, malin-dependent regulation of its localization was of interest. GPBB is largely localized to the cytoplasm (FIG. 11B). […]
# AMPK [1] = assay: p-AMPK and p-ACC after metformin treatment of ES cells; type: cell-based
# Experimental: Whole-cell extracts were generated in RIPA buffer (0.5% deoxycholate, 1% IGEPAL-CA630, 0.1% sodium dodecyl sulfate, 150 mM NaCl, 50 mM Tris-8.1), lysates were cleared by centrifugation and protein concentrations were quantified with the Pierce BCA Protein Assay Kit (Thermo). For western blotting, 25 μg of protein extract per sample was denatured with heat and reducing agents, separated on a 4-12% acrylamide gel (BioRad) and transferred to PVDF (BioRad). Antibodies used for western blotting were: malin (Abcam, 1:1,000), acetyl-H3 (EMDmillipore, 1:1,000), pan-methylation (AbCAM, 1:1,000), myc (Abcam, 1:500), branching enzyme (Lsbio, 1:500), glycogen debranching enzyme (LSBio, 1:1,000), glycogen phosphorylase liver isoform (Cell Signaling Technology 46955 1:2,000), glycogen phosphorylase brain isoform (LSBio, 1:1,000), GAPDH (Abcam 1:1,0000), Histone H3 (Abcam ab1791, 1:20,000), H3K27Ae (Abcam, 1:500), Flag-M2-HRP (Sigma, 1:5000), HSP70 (Abcam, 1:5000) and H3K27me3 (Millipore 07-449; 1:4,000). Each primary antibody was incubated overnight at 4° C. Tubulin (Abcam, 1:20,000) was used as a loading control. All antibodies have detailed species validation available online from vendors. The secondary antibody anti-rabbit IgG, HRP-linked Antibody (Cell Signaling 7074, 1:5,000) or anti-mouse IgG, HRP-linked antibody (Cell Signaling 7076, 1:5,000) was incubated for 1 h at room temperature. After washing, chemiluminescence images were acquired using the ChemiDocMP (BioRad).
# Malin-overexpression cells are more sensitive to the AMPK-activator metformin. Since aberrant ES-glycogen binds to AMPK with high affinity and is inhibitory over p-AMPK activity, malin-OE cells that normalize glycogen architecture should be more sensitive to AMPK activators. Both A673-EV and A673-malin-OE cells were treated with 2 mM metformin and both p-AMPK and p-ACC were assessed.
# A673 xenograft tumors = assay: Normalized glycogen levels in treated xenograft tumors; type: in vivo, athymic nude mice; details: FIG. 31C
# Experimental: (§1) FIGS. 31A-E show graphs illustrating in vitro and in vivo efficacy of the glycogen synthase inhibitor guaiacol as an anti-ES agent. (A) A673 Ewing's sarcoma cells were treated with increasing concentrations of guaiacol. (B) The IC50 for guaiacol is ˜20 μm in A673 cells. […] (E) A673 cells (10^7) were injected subcutaneously in athymic nude mice and when the tumor reached 0.1 cm^3 in size, a daily intraperitoneal injection was initiated of either PBS or guaiacol (20 mg/kg) and tumor size was measured over 15 weeks.
# (§2) The efficacy of guaiacol was further tested in the xenograft model of ES. A673 cells (10^6) were injected subcutaneously in athymic nude mice and when the tumor reached 0.1 cm^3 in size daily IP injection of either PBS or guaiacol (20 mg/kg) was initiated and tumor size was measured over 15 weeks.
# [2] = Tolerability in xenograft mice (body weight, motor and behavior testing); type: in vivo; details: 20 mg/kg daily IP, athymic nude mice
# Experimental: as §2
# TC32 = assay: Cell viability after guaiacol treatment, TC32; type: cell-based; details: Homo sapiens, TC-32; TC32, 48 hrs; read-out: IC50 (50% cell viability)
# Experimental: (§3) Guaiacol as a therapeutic agent to target ES in vitro and in vivo. Glycogen metabolism has not been evaluated as an anti-cancer target in ES. Guaiacol is a naturally occurring compound that is a GYS inhibitor. […] Cell viability after treatment of guaiacol was assessed at various concentrations for 48 hrs in three different ES cell lines (TC32, A673 and HS822T). Guaiacol IC50 (50% cell viability) for all three cell lines is ˜20 μM which corresponds to a 3-fold reduction in total glycogen (A673 is shown in FIGS. 31A-C).
# [3] = test system: A673 Ewing's sarcoma cells; assay: Cell viability after guaiacol treatment, A673; type: cell-based; details: Homo sapiens
# Experimental: (A) A673 Ewing's sarcoma cells were treated with increasing concentrations of guaiacol. […] (E) A673 cells (10^7) were injected subcutaneously in athymic nude mice and when the tumor reached 0.1 cm^3 in size, a daily intraperitoneal injection was initiated of either PBS or guaiacol (20 mg/kg) and tumor size was measured over 15 weeks.
# Glycogen metabolism has not been evaluated as an anti-cancer target in ES. Guaiacol is a naturally occurring compound that is a GYS inhibitor. […] Cell viability after treatment of guaiacol was assessed at various concentrations for 48 hrs in three different ES cell lines (TC32, A673 and HS822T).
# HS822T = assay: Cell viability after guaiacol treatment, HS822T; type: cell-based; details: 48 hrs, read-out: IC50 (50% cell viability)
# Experimental: as §3
# [4] = general statement; cited from earlier work
# [5] = general statement; cited from earlier work; remark: listed apart in the source
# A673 = assay: Total glycogen in guaiacol treated ES cell lines; type: cell-based; details: at ~20 μM (IC50), A673 shown
# Experimental: Cells were washed twice in PBS and then lysed in 20 mM NaAcetate pH 5.3, 150 mM NaCl, 10% (v/v) glycerol, 1% (v/v) NP-40. Lysates were centrifuged at 10,000×g at 4° C. for ten minutes. Cleared lysates or purified glycogen were dissolved in ddH2O, followed by acid hydrolysis with 2N HCL for 3 h at 98° C. The reaction was quenched with 2N NaOH for subsequent experiments. Glycogen-derived glucose molecules were measured by either biochemical assay or gas chromatography-mass spectrometry (GC-MS). For the biochemical assay, a portion of the digested lysate was incubated for half an hour at room temperature with 100 U L^−1 of both hexokinase and glucose-6-phosphate dehydrogenase (Sigma) in 50 mM Tris-HCl pH 7.5, 5 mM MgCl2, 0.5 mM ATP, 0.5 mM NAD^+. The absorbance was measured at 340 nm using glucose standards to determine glycogen concentration in lysates; undigested lysates were used for background subtraction. […]
# Guaiacol as a therapeutic agent to target ES in vitro and in vivo. Glycogen metabolism has not been evaluated as an anti-cancer target in ES. […] Cell viability after treatment of guaiacol was assessed at various concentrations for 48 hrs in three different ES cell lines (TC32, A673 and HS822T). […]
# A673 xenograft = A673 xenograft model of ES, tumor size; type: in vivo, athymic nude mice; details: 20 mg/kg daily intraperitoneal vs PBS, 15 weeks
# Experimental: as §1, §2
# AMPK [6] = assay: Metformin induced AMPK activation (p-ACC) in guaiacol treated cells; type: cell-based; details: guaiacol treated cells plus metformin
# A549 xenografts = assay: A549 xenograft, tumor size; type: in vivo, athymic nude mice; details: 20 mg/kg daily intraperitoneal vs PBS, 15 weeks
# Experimental: (§4) FIGS. 32A-B show graphs illustrating in vitro and in vivo efficacy of the glycogen phosphorylase inhibitor 1,4-dideoxy-1,4-imino-d-arabinitol (DAB) in non-small cell lung cancer.
# For in vivo tumor growth, H1299, H2030 and A549 cells were dissociated into single cells, counted and resuspended at 5×10^6 cells per 100 μl of 1:1 media/matrigel (BD). 8-10-week-old female Foxn1^nu/Foxn1^nu(Nude) mice (JAX Laboratories) were injected subcutaneously with 5×10^6 cells on both sides of the flanks. Tumor growth was measured twice a week by caliper in a non-blinded fashion. Tumors were allowed to grow upwards of 1000 mm^3. All mouse experiments were approved by the BCH Animal Care and Use Committee and by the University of Kentucky Institutional Animal Care and Use Committee, both accredited by the Association for Assessment and Accreditation of Laboratory Animal Care and were performed in accordance with relevant institutional and national guidelines and regulations.
# A549 adenoma cells = assay: A549 cells treated with increasing concentrations of DAB; type: cell-based; details: Homo sapiens, FIG. 32A
# Description: as §4
# [7] = 2 mM metformin, A673-EV and A673-malin-OE cells
structure (smiles),measurement,setting,value
CCC(=C/[C@H](C)C/C=C/C(C)=C/[C@@H](C)C(=O)[C@@H](C)[C@H](O)[C@@H](C)C/C(C)=C/C(=O)O)/C=C/[C@@H]1OC(=O)C=C[C@@H]1C [leptomycin],localization of endogenous GP,HEK293 cells,accumulation of endogenous GP in the nucleus
CN(C)C(=N)N=C(N)N [metformin],p-ACC,AMPK [1]; [7],only the malin-OE cell line showed a significant increase in p-ACC
same,p-AMPK,AMPK [1]; [7],increased p-AMPK in both EV and malin-OE cell lines
same,AMPK activity (p-ACC read out) response to AMPK activator,"AMPK [1]; ES-cells, FIG. 20",insensitive
"COc1ccccc1O [guaiacol, 2-methoxyphenol]",reduction in normalized glycogen levels,A673 xenograft tumors,3 fold
same,tolerability / adverse side effects,[2],well tolerated in athymic nude mice without any adverse side effects
same,pIC50,TC32,~4.70
same,pIC50,"[3]; A673, 48 hrs, read-out: IC50 (50% cell viability)",~4.70
same,pIC50,"[3]; A673 cells, FIG. 31B, read-out: IC50",~4.70
same,pIC50,HS822T,~4.70
same,bioavailability,[4],high bioavailability
same,toxicity in vivo,[5],minimal toxicity in vivo
same,reduction in total glycogen,A673,3 fold
same,reduction in tumor volume at the experiment endpoint,A673 xenograft,4 fold
same,sensitivity to metformin induced AMPK activation (p-ACC),AMPK [6],"more sensitive to metformin induced AMPK activation, showing more prominent increase in p-ACC"
"OC[C@H]1NC[C@@H](O)[C@@H]1O [DAB, 1,4-dideoxy-1,4-imino-D-Arabinitol]",tumor size / xenograft growth,A549 xenografts,failed to continue to proliferate over the course of 15 weeks; also recorded: significantly decreased tumor size as compared to PBS
same,pIC50,A549 adenoma cells,~5.82
